Patent US20260306641A1, “HELICASE DEGRADERS” (priority 2023, published 2026)
pIC50: −log10 of the molar value.

Columns and labels:
HaCaT cells = assay: BrdU labeling of DNA replication in synchronized HaCaT cells; format: cell-based, human; conditions: treated at 18 hrs, analyzed 3 hrs later; CA1/novobiocin 15 μM, etoposide 5 μM
Procedure: Verification of synchronization and determination of drug effects was performed by measuring the incorporation of bromo-deoxyuridine (BrdU) into replicating foci within nuclei. At times indicated, cells were pulse-labeled with 15 μM BrdU for 30 min, fixed with 4% paraformaldehyde, and analyzed by standard immunofluorescent techniques(40,51) with an anti-BrdU monoclonal antibody (Roche, clone no. BMC9318, RRID:AB_2313622). The average counts of three fields of 100 or more cells were used to determine the percentages of BrdU-labeled nuclei, +/−1 s.d.

[1] = test system: MCM/CMG and replisome proteins in HaCaT cells; assay: Immunoblots of chromatin-bound or total proteins, synchronized HaCaT cells; format: cell-based, human; conditions: S-phase cells; etoposide 5 μM
[2] = test system: T1, human CMG helicase (hCMG); assay: hCMG helicase fork-unwinding (strand displacement) assay; format: biochemical; conditions: for inhibition of hCMG helicase activity, SAR set: 500 μM compound
T1 construct: made in house; host or cells: High Five insect cells, baculovirus (11 viruses co-infected)
Procedure: The human CMG helicase was purified following the established and validated protocol of Hurwitz and colleagues(19,20), with minor modifications. A detailed description of the approach is shown here, to allow for comparisons to the methods described by the Hurwitz group.
High Five insect cells (2-3 million cells/ml, 1.5 L), were in cultured in a shaking incubator at 27° C. in suspension with ESF921 serum free medium (Expression Systems, CA; cat. #96-001-01), then co-infected for 60 hrs with 11 baculoviruses expressing human 6His2Flag-Cdc45, the human MCM hexamer (Mcm2, Mcm3, Mcm4, Mem5, Mcm6, Mcm7), and human GINS (GST-Sld5, Psf3, Psf2, and Psf1). Each virus was infected at an MOI of ~10 from individual virus stocks. Infected cells were harvested by centrifugation at 650×g for 5 min at 4° C., washed with cold PBS, frozen on dry ice, and stored at −80° C. until use. The cell pellet (~20 mL) was thawed on ice, resuspended in 45 ml Hypotonic Buffer [20 mM Hepes-NaOH (pH 7.5), 5 mM KCl, 1.5 mM MgCl2] with protease inhibitors (1 mM [COMPOUND LEFT OUT], 1 mM Benzamidine, 0.15 μM Aprotinin, 4 μM Leupeptin, and 1 μM Antipain), and kept on ice for 10 min before lysing by Dounce homogenization (tight fitting, 60 strokes). The cell extract was adjusted to 0.42 M potassium acetate and centrifuged at 43,000×g for 1 hr at 4° C. The cleared lysate was mixed with 0.75 ml glutathione beads (cat. #17-0756-05; GE Healthcare) pre-equilibrated with FEQ buffer [20 mM Hepes-NaOH (pH 7.5), 0.42 M potassium acetate, 5 mM KCl, 1.5 mM MgCl2] and incubated by rotation at 4° C. overnight. Following centrifugation at 290×g at 4° C., the bound glutathione beads were washed four times (15 min each wash) with 40 ml of FW buffer [20 mM Hepes-NaOH (pH 7.5), 0.42 M potassium acetate, 1 mM DTT, 1 mM EDTA, 0.01% NP40, 10% glycerol (vol/vol) with protease inhibitors as above] containing protease inhibitors (as above). Bound proteins were eluted at 4° C. three times (1 hr each elution) with 3.5 ml Q buffer [20 mM Hepes-NaOH (pH 7.5), 1 mM DTT, 1 mM EDTA, 0.01% NP40, 10% glycerol (vol/vol), and protease inhibitors as above] containing 0.15 M potassium acetate and 20 mM reduced glutathione. The eluted fractions were combined and applied to a HiTrap Q-Sepharose FF column (HiTrap Q FF 1 mL, cat. #17505301, Cytiva), pre-equilibrated 3× with 5 ml of Q buffer containing 0.15 M, 0.75 M, 0.15M potassium acetate, in sequence. The Q-Sepharose FF column was washed with 10 ml of FW buffer containing protease inhibitors (as above). The proteins were eluted with 10 ml of Q buffer containing 0.75 M potassium acetate. The eluted fraction was mixed with 0.15 ml of anti-Flag M2 affinity gel/beads and incubated while rotating at 4° C. overnight. After centrifugation at 290×g for 5 min at 4° C., the beads were washed three times with 10 ml PreScission buffer [50 mM Tris-HCl (pH 7.5), 0.15 M NaCl, 1 mM DTT, 1 mM EDTA] for 15 min at 4° C., and eluted at 4° C. three times (1 hr each elution) with 0.2 ml PreScission enzyme buffer containing 0.2 mg/ml 3×-Flag peptides. The combined eluates were incubated with 20 Units of PreScission Protease (GE Healthcare) and 0.1 mL glutathione beads for 4 hr at 4° C. The supernatant was layered onto a 15-40% glycerol gradient [25 mM Tris-HCl (pH 7.5), 50 mM NaCl, 1 mM DTT, 1 mM EDTA, 0.01% NP40, protease inhibitors as above] in a 5 mL ultra-centrifugation tube and centrifuged at 260,000×g for 14 hr at 4° C. Glycerol fractions (0.15 mL each fraction) were collected from bottom of tube and stored at −80° C. until use. Typically, fractions 6-9 contained complete hCMG (~750-800 kDa) and co-migrated with thyroglobulin.
Helicase fork-unwinding assays were performed at 37° C. for 1 hr in 20 μL reaction volumes using 2-4 μl of hCMG (~15-30 fmol), in a buffer consisting of 25 mM Hepes-NaOH (pH 7.5), 5 mM NaCl, 0.5 mM ATP, 10 mM magnesium acetate, 1 mM DTT, 0.1 mg/ml bovine serum albumin (BSA), and ~10 fmol of radiolabeled DNA forks (20). […]

[3] = test system: T1, human CMG helicase (hCMG); assay: hCMG ATPase activity, FP ADP^2 Transcreener assay; format: biochemical; conditions: role: product, 15 fmol hCMG, 500 μM ATP
Procedure: The fluorescent-polarization (FP) ADP-sensing assays were performed using the Transcreener® ADP^2 FP assay kit (cat #3010-1K, Bellbrook Labs). For hCMG inhibitor screening, assays were performed at 37° C. for 1 hr in 10 μl reactions in a 384-well plate (cat. #4514, Corning) using 2 μL of hCMG (~15 fmol), 25 mM Hepes-NaOH (pH 7.5), 10 mM NaCl, 0.5 mM ATP, 10 mM magnesium acetate, 1 mM DTT, 0.1 mg/ml BSA, and DNA fork substrates. […] Selected inhibitors or samples from a chemical library were added into the reactions when conducting the screening or testing inhibitor effectiveness. The NCI Diversity Set VI chemical library was obtained from the National Cancer Institute (Bethesda, MD).
The window of sensitivity for the ADP-sensing assays is determined by setting up two 10 μL control samples without any added hCMG helicase: a Low-FP mixture (4 nM ADP Alexa Fluor-633 Tracer alone) and a High-FP mixture (4 nM ADP Alexa Fluor-633 Tracer plus patented anti-ADP^2 Antibody). The amount of ADP^2 Antibody used had to be adjusted to account for the use of 500 μM ATP in our hCMG assays, versus 10 μM ATP in enzyme reactions typically assessed with standard kits prepared by BellBrook Labs. […] This was done according to the manufacturer by performing a titration with increasing ADP^2 Antibody, fixed 4 nM ADP Alexa Fluor-633 Tracer, and 500 μM ATP to determine the ~EC80-85 for millipol (mP) changes, which determined the optimal ADP^2 Antibody concentration to use as 0.64 mg/ml (FIG. 9A). Samples are read with a Perkin Elmer Envision II plate reader with optimized Cy5 (far-red) FP-compatible mirror and cubes (cat #2100-8390, Perkin Elmer). The Low-FP sample is the least polarized and gives a low mP reading, while the High-FP sample is the most polarized and gives the highest mP reading. The difference between the Low-FP and High-FP values defines the FP assay window, which is normally in a range of 150-200 mP under ideal conditions for screening purposes. The hCMG helicase hydrolyzes ATP to ADP and decreases the mP reading within this window, with an ideal change (ΔmP) in the FP window of at least 50% to be in a readable range for inhibitor screening (as per manufacturer). Potential hCMG chemical inhibitors reverse this effect and cause the mP readings to increase.
We performed a titration with increasing and decreasing concentrations of ADP and ATP, respectively, to assess the sensitivity of the FP assay in detecting ADP production (FIG. 9B). Consistent with the stated manufacturer predictions, the assay can reliably detect 1-3% changes in ADP production (i.e., 5-15 μM ADP production) in starting concentrations of ATP of 500 μM, with a Z′ efficiency between 0.6-0.8 (determined following manufacturer protocols).
Once the hCMG enzyme reactions are complete, 10 μL of 1× Stop Solution and Detection Buffer (buffer from BellBrook Labs; containing 4 nM ADP Alexa Fluor-633 Tracer plus ADP^2 Antibody) are added to each reaction, and to the High-FP control. The Low-FP control receives 10 μL of 1× Stop Solution and Detection Buffer containing only 4 nM ADP Alexa Fluor-633 Tracer (no Antibody). Samples are incubated at 25° C. for 1 hr, then read in the plate reader. […] Plate readings from these tests of potential positive hits should be similar to that seen with the Low-FP control, or such hits may instead be false-positives.

T1 sequence (P49736 whole entry): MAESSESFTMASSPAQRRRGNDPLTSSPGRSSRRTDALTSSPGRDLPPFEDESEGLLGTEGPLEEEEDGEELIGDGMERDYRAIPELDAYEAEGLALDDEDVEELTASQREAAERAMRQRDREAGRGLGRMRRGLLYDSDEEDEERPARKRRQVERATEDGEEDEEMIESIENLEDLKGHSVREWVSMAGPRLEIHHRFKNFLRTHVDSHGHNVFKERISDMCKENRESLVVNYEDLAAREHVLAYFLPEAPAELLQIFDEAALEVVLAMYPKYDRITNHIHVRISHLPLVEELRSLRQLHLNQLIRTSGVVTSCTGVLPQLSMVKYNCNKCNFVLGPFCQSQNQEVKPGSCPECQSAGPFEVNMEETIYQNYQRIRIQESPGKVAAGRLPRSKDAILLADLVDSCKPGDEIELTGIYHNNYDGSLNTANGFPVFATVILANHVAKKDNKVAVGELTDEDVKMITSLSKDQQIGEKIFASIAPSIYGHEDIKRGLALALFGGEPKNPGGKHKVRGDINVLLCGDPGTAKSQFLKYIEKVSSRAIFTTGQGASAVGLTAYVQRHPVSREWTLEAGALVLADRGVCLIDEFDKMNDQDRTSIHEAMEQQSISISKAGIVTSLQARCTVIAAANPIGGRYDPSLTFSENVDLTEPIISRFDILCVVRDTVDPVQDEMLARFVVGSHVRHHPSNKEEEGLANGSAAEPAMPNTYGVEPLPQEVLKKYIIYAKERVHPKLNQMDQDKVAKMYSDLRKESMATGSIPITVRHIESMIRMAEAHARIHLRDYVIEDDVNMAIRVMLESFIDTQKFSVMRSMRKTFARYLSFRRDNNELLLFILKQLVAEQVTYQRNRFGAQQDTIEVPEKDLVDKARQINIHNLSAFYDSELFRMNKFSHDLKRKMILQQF
T1 sequence (P25205 whole entry, further chain): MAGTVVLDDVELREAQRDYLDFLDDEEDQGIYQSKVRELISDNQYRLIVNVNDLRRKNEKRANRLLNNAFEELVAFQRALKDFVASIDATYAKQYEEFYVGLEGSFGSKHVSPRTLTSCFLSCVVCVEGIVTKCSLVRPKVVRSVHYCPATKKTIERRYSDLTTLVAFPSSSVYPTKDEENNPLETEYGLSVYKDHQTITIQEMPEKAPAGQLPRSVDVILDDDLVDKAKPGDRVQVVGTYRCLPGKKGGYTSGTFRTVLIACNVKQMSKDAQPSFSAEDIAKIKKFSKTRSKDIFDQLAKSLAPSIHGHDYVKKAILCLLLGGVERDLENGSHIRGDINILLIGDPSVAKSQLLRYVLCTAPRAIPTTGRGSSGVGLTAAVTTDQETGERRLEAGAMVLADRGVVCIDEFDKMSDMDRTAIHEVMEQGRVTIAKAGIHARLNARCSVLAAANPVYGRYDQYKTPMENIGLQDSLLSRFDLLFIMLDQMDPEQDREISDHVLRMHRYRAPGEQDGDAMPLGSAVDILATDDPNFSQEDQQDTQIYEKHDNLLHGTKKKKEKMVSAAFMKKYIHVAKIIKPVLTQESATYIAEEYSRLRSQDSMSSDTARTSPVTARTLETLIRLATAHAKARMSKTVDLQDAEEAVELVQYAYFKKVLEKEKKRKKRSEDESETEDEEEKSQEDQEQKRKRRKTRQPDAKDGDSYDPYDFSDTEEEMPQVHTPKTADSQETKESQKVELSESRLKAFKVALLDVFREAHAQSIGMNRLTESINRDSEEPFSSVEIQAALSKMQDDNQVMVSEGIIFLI
T1 sequence (P33991 whole entry, further chain): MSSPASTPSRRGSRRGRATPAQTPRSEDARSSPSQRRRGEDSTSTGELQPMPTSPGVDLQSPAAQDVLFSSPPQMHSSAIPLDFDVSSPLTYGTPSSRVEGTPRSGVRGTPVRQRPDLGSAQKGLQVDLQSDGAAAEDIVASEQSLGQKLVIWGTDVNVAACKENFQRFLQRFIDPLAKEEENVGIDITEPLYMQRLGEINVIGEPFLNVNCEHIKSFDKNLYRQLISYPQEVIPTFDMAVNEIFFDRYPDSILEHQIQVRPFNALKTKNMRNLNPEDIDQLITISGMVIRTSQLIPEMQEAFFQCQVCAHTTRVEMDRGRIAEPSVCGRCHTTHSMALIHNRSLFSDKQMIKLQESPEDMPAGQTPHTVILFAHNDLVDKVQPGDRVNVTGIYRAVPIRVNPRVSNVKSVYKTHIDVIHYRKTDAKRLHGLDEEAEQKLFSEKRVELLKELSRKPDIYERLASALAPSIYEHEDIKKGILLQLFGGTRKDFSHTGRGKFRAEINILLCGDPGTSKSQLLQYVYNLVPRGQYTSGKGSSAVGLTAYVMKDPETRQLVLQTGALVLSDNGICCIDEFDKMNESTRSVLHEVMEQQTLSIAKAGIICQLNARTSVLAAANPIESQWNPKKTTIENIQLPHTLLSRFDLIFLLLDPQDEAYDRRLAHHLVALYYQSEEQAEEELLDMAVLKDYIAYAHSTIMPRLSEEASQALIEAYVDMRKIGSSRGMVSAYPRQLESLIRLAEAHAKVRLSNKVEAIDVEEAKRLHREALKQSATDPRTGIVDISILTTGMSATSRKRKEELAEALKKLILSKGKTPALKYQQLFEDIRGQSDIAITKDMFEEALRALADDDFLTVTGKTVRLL
T1 sequence (P33992 whole entry, further chain): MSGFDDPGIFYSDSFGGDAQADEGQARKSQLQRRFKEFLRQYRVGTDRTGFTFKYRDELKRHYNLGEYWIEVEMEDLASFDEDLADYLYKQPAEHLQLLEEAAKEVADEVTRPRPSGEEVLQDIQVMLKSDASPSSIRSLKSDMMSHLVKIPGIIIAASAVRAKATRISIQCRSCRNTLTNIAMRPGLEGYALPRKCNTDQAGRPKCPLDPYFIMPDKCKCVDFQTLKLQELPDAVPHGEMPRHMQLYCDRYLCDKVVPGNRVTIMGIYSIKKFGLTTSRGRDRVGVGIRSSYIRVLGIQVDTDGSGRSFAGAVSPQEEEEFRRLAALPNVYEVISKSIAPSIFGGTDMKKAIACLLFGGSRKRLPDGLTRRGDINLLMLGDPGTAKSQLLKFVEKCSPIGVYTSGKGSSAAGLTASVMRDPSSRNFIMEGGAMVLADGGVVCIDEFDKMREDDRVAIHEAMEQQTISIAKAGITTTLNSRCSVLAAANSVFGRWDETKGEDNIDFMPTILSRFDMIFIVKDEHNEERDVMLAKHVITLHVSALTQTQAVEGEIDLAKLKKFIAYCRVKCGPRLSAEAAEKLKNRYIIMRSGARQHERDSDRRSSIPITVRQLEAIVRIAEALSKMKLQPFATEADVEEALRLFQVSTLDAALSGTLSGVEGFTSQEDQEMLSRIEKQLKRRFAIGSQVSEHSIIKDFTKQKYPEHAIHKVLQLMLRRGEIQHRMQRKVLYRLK
T1 sequence (Q14566 whole entry, further chain): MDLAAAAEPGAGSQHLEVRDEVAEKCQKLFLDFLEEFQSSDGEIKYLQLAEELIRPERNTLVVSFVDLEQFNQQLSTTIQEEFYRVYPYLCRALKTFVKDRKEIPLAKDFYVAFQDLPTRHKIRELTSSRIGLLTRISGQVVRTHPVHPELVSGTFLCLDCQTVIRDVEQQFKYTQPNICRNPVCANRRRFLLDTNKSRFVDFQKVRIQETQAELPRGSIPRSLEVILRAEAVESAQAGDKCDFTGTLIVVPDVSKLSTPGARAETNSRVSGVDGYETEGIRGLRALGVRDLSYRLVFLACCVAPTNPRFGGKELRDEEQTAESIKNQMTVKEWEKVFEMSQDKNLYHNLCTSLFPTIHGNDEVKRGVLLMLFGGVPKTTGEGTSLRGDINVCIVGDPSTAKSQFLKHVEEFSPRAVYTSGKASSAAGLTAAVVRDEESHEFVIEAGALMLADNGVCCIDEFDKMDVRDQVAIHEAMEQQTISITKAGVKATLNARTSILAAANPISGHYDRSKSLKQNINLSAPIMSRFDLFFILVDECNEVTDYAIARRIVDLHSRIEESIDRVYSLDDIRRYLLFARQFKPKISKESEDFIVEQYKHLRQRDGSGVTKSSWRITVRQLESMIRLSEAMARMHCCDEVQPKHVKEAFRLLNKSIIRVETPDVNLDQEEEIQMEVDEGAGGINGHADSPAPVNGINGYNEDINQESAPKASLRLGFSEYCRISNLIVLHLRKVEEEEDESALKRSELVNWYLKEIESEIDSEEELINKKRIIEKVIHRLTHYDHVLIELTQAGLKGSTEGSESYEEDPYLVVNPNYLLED
T1 sequence (P33993 whole entry, further chain): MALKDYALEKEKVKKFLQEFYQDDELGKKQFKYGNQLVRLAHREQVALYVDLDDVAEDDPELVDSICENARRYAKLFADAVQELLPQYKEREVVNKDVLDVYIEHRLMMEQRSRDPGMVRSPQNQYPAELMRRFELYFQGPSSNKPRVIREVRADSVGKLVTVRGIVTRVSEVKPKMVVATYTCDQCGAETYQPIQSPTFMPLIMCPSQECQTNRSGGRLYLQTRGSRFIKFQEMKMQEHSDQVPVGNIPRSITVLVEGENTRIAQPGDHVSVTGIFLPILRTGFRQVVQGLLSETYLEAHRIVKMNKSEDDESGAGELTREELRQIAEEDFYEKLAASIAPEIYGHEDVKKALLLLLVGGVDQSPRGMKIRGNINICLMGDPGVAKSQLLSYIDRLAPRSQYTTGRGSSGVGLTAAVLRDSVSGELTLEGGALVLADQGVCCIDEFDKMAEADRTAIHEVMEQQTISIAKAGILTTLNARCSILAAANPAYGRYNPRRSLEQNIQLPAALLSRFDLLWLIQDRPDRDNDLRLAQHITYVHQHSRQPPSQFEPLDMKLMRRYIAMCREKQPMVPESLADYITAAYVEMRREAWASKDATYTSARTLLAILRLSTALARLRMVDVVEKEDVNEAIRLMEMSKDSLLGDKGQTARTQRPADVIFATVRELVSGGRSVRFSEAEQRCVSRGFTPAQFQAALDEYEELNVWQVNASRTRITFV

COc1cc([C@@H]2c3cc4c(cc3[C@@H](O[C@@H]3O[C@@H]5CO[C@@H](C)O[C@H]5[C@H](O)[C@H]3O)[C@H]3COC(=O)[C@H]23)OCO4)cc(OC)c1O [etoposide]
DNA replication (BrdU), early S-phase treatment (HaCaT cells): effectively suppressed DNA replication
DNA polymerases-a and -d on chromatin [1]: small change
replisome components or RPA on chromatin [1]: does not significantly diminish replisome components or RPA on chromatin
hCMG helicase inhibition by etoposide ([2]; fork-unwinding): does not inhibit hCMG activity
hCMG helicase inhibition by etoposide ([2]; fork-unwinding, listed as Etoposide): no effect on hCMG helicase activity in vitro

O=C(O)c1cn(C2CC2)c2cc(N3CCNCC3)c(F)cc2c1=O [ciprofloxacin]
hCMG helicase inhibition by quinolones ([2]; 100 μM or 1000 μM): do not inhibit the purified hCMG helicase

CO[C@@H]1[C@@H](O)[C@@H](O)[C@H](Oc2ccc3c(O)c(NC(=O)c4ccc(O)c(CC=C(C)C)c4)c(=O)oc3c2C)OC1(C)C [MBC-D3, N-(7-(((2R,3R,4S,5R)-3,4-Dihydroxy-5-methoxy-6,6-dimethyltetrahydro-2H-pyran-2-yl)oxy)-4-hydroxy-8-methyl-2-oxo-2H-chromen-3-yl)-4-hydroxy-3-(3-methylbut-2-en-1-yl)benzamide]
inhibition of hCMG helicase activity, SAR set [2]: this inhibition of the hCMG is diminished when the noviose sugar is added

Nc1ncnc2c1ncn2[C@@H]1O[C@H](COP(=O)(O)OP(=O)(O)OP(O)(O)=S)[C@@H](O)[C@H]1O [ATP-γ-S]
suppression of fork-unwinding activity ([2]; 500 μM ATP, increasing ATP-gamma-S): dose-dependent suppression of fork-unwinding activity

CO[C@@H]1[C@@H](OC(=O)c2ccc(C)[nH]2)[C@@H](O)[C@H](Oc2ccc3c(O)c(NC(=O)c4ccc(O)c(CC=C(C)C)c4)c(=O)oc3c2C)OC1(C)C [MBC, (3R,4S,5R,6R)-5-Hydroxy-6-((4-hydroxy-3-(4-hydroxy-3-(3-methylbut-2-en-1-yl)benzamido)-8-methyl-2-oxo-2H-chromen-7-yl)oxy)-3-methoxy-2,2-dimethyltetrahydro-2H-pyran-4-yl]
pIC50 ([2]; fork-unwinding, read-out: IC50 for hCMG helicase inhibition): ~4.23

CO[C@@H]1[C@@H](OC(=O)c2ccc(C)[nH]2)[C@@H](O)C(O)OC1(C)C (mixture of isomers) [MBC-D1, (3R,4S,5R)-5,6-Dihydroxy-3-methoxy-2,2-dimethyltetrahydro-2H-pyran-4-y 5-methyl-1H-pyrrole-2-carboxylate]
inhibition of hCMG helicase activity, SAR set [2]: only a small level of inhibition

CC(C)=CCc1cc(C(=O)Nc2c(O)c3ccc(O)c(C)c3oc2=O)ccc1O [MBC-D2, N-(4,7-Dihydroxy-8-methyl2-oxo-2H-chromen-3-yl)-4-hydroxy-3-(3-methylbut-2-en-1-yl)benzamide]
inhibition of hCMG helicase activity, SAR set [2]: somewhat effective at inhibiting the hCMG

(3R,4S,5R,6R)-5-Hydroxy-6-((4-hydroxy-3-(4-hydroxy-3-(3-methylbut-2-en-1-yl)benzamido)-8-methyl-2-oxo-2H-chromen-7-yl)oxy)-3-methoxy-2,2-dimethyltetrahydro-2H-pyran-4-yl [MBC]
inhibition of hCMG helicase activity, SAR set [2]: potently inhibit the hCMG

Nc1ncnc2c1ncn2[C@@H]1O[C@H](COP(=O)(O)OP(=O)(O)O)[C@@H](O)[C@H]1O [ADP]
ADP conversion rate by the hCMG [3]: ~ 1.5%
production of ADP ([3]; 10 μL reaction, 1 hr): 7 to 8 µM
